Data set [1] deals with hypogonadism in men. The data set can be described thus: Study of testosterone cypionate injections every 7 days (with anastrozole) in men, followed by blood work until stabilization. It is filed as in vivo, human. The following applies: for TT at week 5 / TT once stable: average total testosterone; for increase in PSA from start of treatment to stabilization / PSA level at stabilization / Hemoglobin at 5 weeks / Hemoglobin at stabilization: average; for average decrease in A1c: TC and anastrozole dosing. From the text:
Patient hemoglobin and total testosterone (TT) levels were used in this Study to determine when a patient becomes “stable” on treatment. The terms “stable”, “stability”, “stabilized” and “stabilization” are defined in this Study as “the point at which a patient's symptoms have resolved, polycythemia has stopped, and TC dosage has remained consistent for at least 3 months.” Polycythemia associated with testosterone replacement therapy (TRT) has commonly been controlled through frequent patient blood donation. […] Several TT “normal” ranges can be found in the literature. For example, the Endocrine Society identifies the normal range for TT levels in males to be 264-916 ng/dL (1,17). However, LabCorp Diagnostics has used the previously accepted “normal” range of 348-1197 ng/dL until 2017 and Quest Diagnostics uses a reference range of 250-1110 ng/dL.
Patients' responses to TC injections administered every 7 days were tracked and the resulting effects of TC dosing on cholesterol, A1c, and PSA levels were documented once stable TT levels were reached.
Subjects: Two cohorts were studied. The two cohorts studied were males that had previously been on TRT and males who had never been on any form of TRT. Blood work was collected from all patients at their initial visit, after 1 month of treatment, after 3 months of treatment, and then at 6 months, 9 months, 12 months, etc. as patients continued treatment. Data was collected for each cohort including the length of time that it took to stabilize on treatment and the average dosage injected weekly once patients had reached stabilization.
However, in this Study TC injections were administered every 7 days, and blood samples were collected at 7 days post-TC injection and after at least 4 consecutive weeks of injections. […] Collecting blood samples at the 4-week mark provides more consistent, accurate, and useful information regarding the TT blood level than if the samples are collected earlier.
Blood samples were then sent to an outsourced laboratory, Lab Tech Diagnostics. Samples were drawn at the patient's initial visit, after their first 4 consecutive TC injections, after 3 months of treatment, and at 3-month intervals thereafter. Testosterone, estradiol, and hemoglobin levels were tracked with every blood sample. PSA and cholesterol levels were checked every 3 months. A1c levels were checked with initial blood work, and then once per year if A1c was within normal limits (WNL) or every 3 months if A1c was >5.6.
Given, the primary goal was to determine a stabilization point such that the patient achieved maximum benefit with minimal side effects (e.g., elimination of polycythemia) from the treatment, the challenge was to identify a TC dose at which the patient's hemoglobin stopped increasing. […] Patients were advised to start 81 mg aspirin daily if their hemoglobin started increasing after starting treatment. […] Dosage adjustments of TC were made in 20 mg (0.1 ml) increments. Assessment of new dosages were not made until after four consecutive injections at the new dose and at 7 days after their last injection. After analysis of data, there were notable similarities in the Total Testosterone, estradiol, and hemoglobin levels once patients reached stabilization on treatment. There were also differences seen between patients that had been on TRT in the past through other clinics and those that started treatment with our clinic. Patients who had previously been on TRT took longer to stabilize on therapy than those who had never been on TRT.

The conditions of data set [2]: in humans; cited from earlier work.
The conditions of data set [3]: well-known value; cited from earlier work.
Setting [4] is: patients never on TRT, starting TT level 347.77 ng/dl.
[5] abbreviates: patients previously on TRT, starting TT level 479.83 ng/dl.
Setting [6] is: patients never on TRT, initial 15.06 g/dl.
Setting [7] is: patients previously on TRT, initial 15.78 g/dl.

“And” between values parts separate entries of the source, which are not always exact repeats. Equal entries are not always repeated. Where two headings read alike, the source gives them in different places.

The term half-life denotes how long it takes for the measured level to halve. For `CC(C)(C#N)c1cc(Cn2cncn2)cc(C(C)(C)C#N)c1` [anastrozole], in data set [1] (in vivo), the “side effects when anastrozole was started at the beginning of treatment” value is reported as “frequently experienced hot flashes or joint pains”. The half-life in data set [2] is 30 to 60 h.
Take `CC(=O)Oc1ccccc1C(=O)O` [aspirin]: the “effect of adding aspirin on hemoglobin levels” value in data set [1] (81 mg daily, patients on TC whose hemoglobin started increasing) is “helped to either decrease hemoglobin levels or slow the rate of increase of hemoglobin levels”.
On to `C[C@]12CC[C@H]3[C@@H](CCC4=CC(=O)CC[C@@]43C)[C@@H]1CC[C@@H]2OC(=O)CCC1CCCC1` [TC, testosterone cypionate], for which, in data set [1] (7-day testosterone level <600), the “symptoms at low 7-day testosterone level” value is given as “almost all patients were still experiencing symptoms of testicular hypofunction”. In data set [1] (60 patients in the study), the “patients who developed prostate cancer” value is listed as “No patients”. Also, the “common increase in cholesterol levels seen with excessive TC dosing” value in data set [1] (TC and anastrozole dosing as described in the study) was “Elimination”. In addition, the “side effects seen at higher TT levels” value in data set [1] (TT levels >1050) is “acne, aggression, erectile dysfunction, difficulty losing weight, extremely elevated estradiol levels, hair loss, and increased body hair”. For the same molecule, the “TT level at which patients stabilized (range)” value in data set [1] (all patients in the study, drawn 7 days after injection) was in the range of 605 to 1051 ng/dL. Moreover, the “TT at week 5” value in data set [1] (setting [4]) was 705.43 ng/dL; in data set [1] (setting [5]) it was 805.9 ng/dL and 805.90 ng/dL. Moreover, the TT once stable in data set [1] (setting [4]) was 794.53 ng/dL; in data set [1] (setting [5]), 780.1 ng/dL and 780.10 ng/dL. The “increase in PSA from start of treatment to stabilization” value in data set [1] (patients never on TRT) is reported as 26.89%; in data set [1] (patients previously on TRT) it was 14.36%. For the same molecule, the “PSA level at stabilization” value in data set [1] (patients never on TRT, initial 0.859 ng/ml) was found to be 1.090 ng/mL; in data set [1] (patients previously on TRT, initial 1.017 ng/ml), 1.163 ng/mL. Also, the “Hemoglobin at 5 weeks” value in data set [1] (setting [6]) came to 15.33 g/dL; in data set [1] (setting [7]) it was 16.22 g/dL. In addition, the Hemoglobin at stabilization in data set [1] (setting [6]) was determined as 15.79 g/dL; in data set [1] (setting [7]), 15.70 g/dL. For the same molecule, the “side effects when not consistent with both TC and anastrozole dosing” value in data set [1] (inconsistent timing and dosage) was “frequently experienced acne, mood swings, and elevating hemoglobin”. For the same molecule, the “polycythemia (need to donate blood)” value in data set [1] (once a patient reached stability on treatment) is “eliminated”. For the same molecule, the “chief complaints/symptoms (Table 1) as reported by the patient” value in data set [1] (once stable on treatment) is recorded as “well-controlled”. The “average decrease in A1c” value in data set [1] (patients not previously on TRT) stood at 0.39%; in data set [1] (patients previously on TRT) it was 0.14%. Besides, the “average time longer to stabilize” value in data set [1] (patients previously on TRT in any form versus patients never on TRT) turned out to be 9.7 months. For the same molecule, the “TT level at stabilization (range)” value in data set [1] (patients never on TRT) fell in the range of 641 to 1051 ng/dL; in data set [1] (patients previously on TRT), 605 to 1020 ng/dL. For the same molecule, the half-life in data set [3] was 170 to 190 h.

These data come from patent publication US20250073245A1, “COMPOSITION AND METHOD OF TREATING HYPOGONADISM IN MEN” (priority 2023, published 2025).
